Assay results as given in patent publication US7741445B2, “Breast cancer resistance protein (BCRP) antibodies” (University of Maryland, Baltimore, priority 1998, dated 2010).
“Also recorded” adds a separate entry of the source.

How the values were obtained:
MCF-7/AdrVp = details: subline selected with doxorubicin in the presence of verapamil; cited from earlier work
[1] = test system: cells that overexpress Pgp or MRP; details: cited from earlier work
[2] = test system: BCRP-transfected MCF-7 cells; experiment: FTC effects on BBR3390 accumulation and retention, flow cytometry; assay type: cell-based, human; details: 10 uM FTC
Method: MCF-7 cells transfected with either the pcDNA3 empty vector or pcDNA3 containing the full-length BCRP cDNA (transfectant clone 8) were cultured as monolayers in tissue culture flasks. The effects of FTC on the accumulation of the aza-anthrapyrazole BBR3390 were measured by exposing these cells to the fluorescent aza-anthrapyrazole BBR3390 (5 uM) in the presence or absence of 10 uM FTC for 60 minutes. Then, the cells were removed from the flasks by trypsinization, and intracellular BBR3390 content was measured by flow cytometry. The effects of FTC on BBR3390 retention were measured by exposing another set of cells (vector control and transfectant clone 8) to 5 uM BBR3390 with and without 10 uM FTC for 60 minutes, washing the cells free of drug, then reincubating the cells for an additional 30 minutes in fresh medium with and without FTC. Intracellular BBR3390 content was measured by flow cytometry. (See FIG. 10).

[3] = test system: MCF-7/BCRP transfectant clones 6 and 8; experiment: Sulforhodamine-B (SRB) cytotoxicity assay; assay type: cell-based, human; details: compared to clone 19, MCF-7 cells or empty vector-transfected controls
Method: (§1) The full-length BCRP cDNA was inserted into the multiple to cloning site of expression vector pcDNA3 (Invitrogen). Following subcloning of the pcDNA3-BCRP construct, DNA sequence analysis was performed to confirm that the insert in the clone that was chosen was in a sense orientation to the CMV promoter of the pcDNA3 vector. MCF-7 cells were transfected with pcDNA3-BCRP, using the calcium phosphate precipitation method (17), selected by culture with geneticin (G418, 1 mg/ml), then subclone by limiting dilution in 96 well flat-bottomed culture plates. Subclones were tested for expression of BCRP mRNA by Northern blot analysis, using radiolabeled Clone 8 cDNA as a probe (FIG. 4A). As a control, MCF-7 cells were also transfected with the empty pcDNA3 vector, then selected by growth in medium containing 1 mg/ml G418 (FIG. 4A).
The sensitivities of the various transfected sublines to chemotherapeutic agents were tested by the sulforhodamine-B (SRB) cytotoxicity assay (14). The LC50, defined as the concentration of drug that caused lethality to 50% of the cells, was calculated. From this, the “Fold of Resistance” (RF) was calculated by dividing the LC50 for a given drug against a transfected cell line by the LC50 of that drug against non-transfected MCF-7 cells. […] FIG. 5 contains the median LC50 values for multiple cytotoxicity experiments for all cell lines and drugs tested. […] The asterisk and solid line in FIG. 4D indicate MCF-7/W cells, the closed squares and dotted lines represent MCF-7/pcDNA3-BCRP clone 8 cells. The vertical bars in the figure represent the standard deviation of six replicate determinations.

[4] = test system: BCRP-overexpressing clones 6 and 8 (MCF-7 cells transfected with pcDNA3-BCRP); experiment: Daunorubicin accumulation and retention by flow cytometry; assay type: cell-based, human
Method: as §1
Daunorubicin accumulation and retention was examined in the transfected cells by means of flow cytometry.

EPP85-181RDB = details: pancreatic; cited from earlier work
EPG85-257RDB = details: gastric; cited from earlier work
MCF-7/AdrVp cells = details: MCF-7/AdrVp vs MCF-7; cited from earlier work
H69/AR = details: small cell lung; cited from earlier work
MCF-7/Adr = details: breast; cited from earlier work
H209/V6 = details: H209/V6, small cell lung; cited from earlier work
MCF-7/VP = details: breast; cited from earlier work
MCF-7/MTX = details: breast; cited from earlier work
MCF-7/MXRS600 = details: MCF-7/MXRS600, breast; cited from earlier work
8226/MR20 = details: 8226/MR20, myeloma; cited from earlier work
H209/MX2 = details: H209/MX2, small cell lung; cited from earlier work
EPP85-181RNOV = details: pancreatic; cited from earlier work
MCF-7/MXRS250 = details: MCF-7/MXRS250, breast; cited from earlier work
MCF-7/Mitox = details: breast; cited from earlier work
MCF-7/MXPR = details: breast; cited from earlier work
H209/MX4 = details: H209/MX4, small cell lung; cited from earlier work
HL-60/MX2 = details: HL-60/MX2, leukemia; cited from earlier work
HT29RNOV = details: colon; cited from earlier work
EPF86-079RNOV = details: fibrosarcoma; cited from earlier work
EPG85-257RNOV = details: gastric; cited from earlier work
MDA-MB-231RNOV = details: breast; cited from earlier work
S1M1-3.2 = details: S1M1-3.2, colon; cited from earlier work

Compound: COc1cccc2c1C(=O)c1c(O)c3c(c(O)c1C2=O)CC(O)(C(=O)CO)CC3OC1CC(N2CCOCC2C#N)C(O)C(C)O1 (stereo not shown) [3′-deamino-3′[3-cyano-4-morpholinyl]doxorubicin]
- cross-resistance of MCF-7/AdrVp subline (MCF-7/AdrVp): marked cross-resistance

Compound: COc1ccc2c3c([nH]c2c1)[C@H](C=C(C)C)N1C(=O)[C@@H]2CCCN2C(=O)[C@@H]1C3 [FTC, Fumitremorgin C]
- reversal of resistance [1]: does not reverse resistance
- effect on accumulation of BBR 3390 ([2]; 5 uM BBR3390, 60 minutes): able to enhance the accumulation
- effect on efflux of BBR 3390 ([2]; 5 uM BBR3390, 60 minutes then 30 minutes in fresh medium): inhibit the efflux

Compound: N.N.[Cl][Pt][Cl] [cisplatin]
- resistance / sensitivity of BCRP-overexpressing clones 6 and 8 to chemotherapeutic agent [3]: remained relatively sensitive
- cross-resistance of MCF-7/AdrVp subline (MCF-7/AdrVp): remains sensitive

Compound: COc1cccc2c1C(=O)c1c(O)c3c(c(O)c1C2=O)C[C@@](O)(C(C)=O)C[C@@H]3O[C@H]1C[C@H](N)[C@H](O)[C@H](C)O1 [daunorubicin]
- intracellular steady-state concentration of drug, of that attained in the vector control cells ([4]; MCF-7/BCRP clone 6 vs pcDNA3 vector control cells): ~50%
- intracellular steady-state concentration of drug, of that attained in the vector control cells ([4]; MCF-7/BCRP clone 8 vs pcDNA3 vector control cells): approximately 30%
- resistance / sensitivity of BCRP-overexpressing clones 6 and 8 to chemotherapeutic agent [3]: displayed resistance
- cross-resistance of MCF-7/AdrVp subline (MCF-7/AdrVp): marked cross-resistance
- Fold resistance to selecting agent (EPP85-181RDB): 846 fold
- Fold resistance to selecting agent (EPG85-257RDB): 1,857 fold
- intracellular accumulation compared to MCF-7 cells (MCF-7/AdrVp cells): marked reduction

Compound: COc1cccc2c1C(=O)c1c(O)c3c(c(O)c1C2=O)C[C@@](O)(C(=O)CO)C[C@@H]3O[C@H]1C[C@H](N)[C@H](O)[C@H](C)O1 [doxorubicin]
- Fold resistance to selecting agent (H69/AR): 100 fold
- resistance / sensitivity of BCRP-overexpressing clones 6 and 8 to chemotherapeutic agent [3]: displayed resistance
- Fold resistance to selecting agent (MCF-7/Adr): 192 fold

Compound: COc1cc([C@@H]2c3cc4c(cc3[C@@H](O[C@@H]3O[C@@H]5CO[C@@H](C)O[C@H]5[C@H](O)[C@H]3O)[C@H]3COC(=O)[C@H]23)OCO4)cc(OC)c1O [etoposide]
- Fold resistance to selecting agent (H209/V6): 22 fold
- Fold resistance to selecting agent (MCF-7/VP): 26 fold

Compound: CC(=O)[C@]1(O)Cc2c(O)c3c(c(O)c2[C@@H](O[C@H]2C[C@H](N)[C@H](O)[C@H](C)O2)C1)C(=O)c1ccccc1C3=O [idarubicin]
- resistance / sensitivity of BCRP-overexpressing clones 6 and 8 to chemotherapeutic agent [3]: remained relatively sensitive
- cross-resistance of MCF-7/AdrVp subline (MCF-7/AdrVp): not

Compound: CN(Cc1cnc2nc(N)nc(N)c2n1)c1ccc(C(=O)N[C@@H](CCC(=O)O)C(=O)O)cc1 [methotrexate]
- Fold resistance to selecting agent (MCF-7/MTX): 1,000 fold

Compound: O=C1c2c(O)ccc(O)c2C(=O)c2c(NCCNCCO)ccc(NCCNCCO)c21 [mitoxantrone]
- resistance / sensitivity of BCRP-overexpressing clones 6 and 8 to chemotherapeutic agent [3]: displayed resistance; also recorded: greatest degree of resistance
- cross-resistance of MCF-7/AdrVp subline (MCF-7/AdrVp): marked cross-resistance
- Fold resistance to selecting agent (MCF-7/MXRS600): 7,450 fold
- Fold resistance to selecting agent (8226/MR20): 36 fold
- Fold resistance to selecting agent (H209/MX2): 2 fold
- Fold resistance to selecting agent (EPP85-181RNOV): 27 fold
- Fold resistance to selecting agent (MCF-7/MXRS250): 4,600 fold
- Fold resistance to selecting agent (MCF-7/Mitox): 1,206 fold
- Fold resistance to selecting agent (MCF-7/MXPR): 270 fold
- Fold resistance to selecting agent (H209/MX4): 4 fold
- Fold resistance to selecting agent (HL-60/MX2): 35 fold
- Fold resistance to selecting agent (HT29RNOV): 100 fold
- Fold resistance to selecting agent (EPF86-079RNOV): 7 fold
- Fold resistance to selecting agent (EPG85-257RNOV): 457 fold
- Fold resistance to selecting agent (MDA-MB-231RNOV): 93 fold
- Fold resistance to selecting agent (S1M1-3.2): 1,435 fold

Compound: CC(=O)O[C@H]1C(=O)[C@@]2(C)[C@H]([C@H](OC(=O)c3ccccc3)[C@]3(O)C[C@H](OC(=O)[C@H](O)[C@@H](NC(=O)c4ccccc4)c4ccccc4)C(C)=C1C3(C)C)[C@]1(OC(C)=O)CO[C@@H]1C[C@@H]2O [paclitaxel]
- resistance / sensitivity of BCRP-overexpressing clones 6 and 8 to chemotherapeutic agent [3]: remained relatively sensitive
- cross-resistance of MCF-7/AdrVp subline (MCF-7/AdrVp): remains sensitive

Compound: rhodamine 123
- intracellular accumulation compared to MCF-7 cells (MCF-7/AdrVp cells): marked reduction
